Assay: Precipitation of various stilbene compounds by γ-CD: concentration in supernatant (HPLC)
Format: physicochemical
Experimental: γ-CD solutions of six different concentrations (42.78, 85.56, 106.95, 128.33, 171.11, 213.89 mg/mL) were prepared.
The mixed solutions were stirred under light shielding conditions at 25° C. for 24 hours. Subsequently, they were subjected to centrifugation at 15,000 rpm at 25° C. for 5 minutes to collect the supernatants. These supernatants were further subjected to centrifugation using the same conditions to obtain another batch of supernatants.
Resveratrol (denoted by “Res” in the figure), rhapontigenin (denoted by “Rha” in the figure), and isorhapontigenin (denoted by “Isorha” in the figure) were used as the stilbene compounds to prepare respective solutions of the stilbene compounds. To each solution, γ-CD was added. Precipitation of these stilbene compounds by γ-CD and the relation between the concentration of γ-CD and the precipitation of the stilbene compounds were examined. Procedures for the preparation of the solutions and the measurement using HPLC were similar to those described in the above Example 1(3).

SMILES: COc1cc(/C=C/c2cc(O)cc(O)c2)ccc1O [Isorha, isorhapontigenin]
- Concentration of Isorha in liquid (γ-CD 0 mg/mL final): 190000 ng/mL
- Concentration of Isorha in liquid (γ-CD 12.8 mg/mL final): 0 ng/mL
- Concentration of Isorha in liquid (γ-CD 25.7 mg/mL final): 0 ng/mL
- Concentration of Isorha in liquid (γ-CD 32.1 mg/mL final): 0 ng/mL
- Concentration of Isorha in liquid (γ-CD 38.5 mg/mL final): 0 ng/mL
- Concentration of Isorha in liquid (γ-CD 51.3 mg/mL final): 0 ng/mL
- Concentration of Isorha in liquid (γ-CD 64.2 mg/mL final): 0 ng/mL

SMILES: Oc1ccc(/C=C/c2cc(O)cc(O)c2)cc1 [Res, Resveratrol]
- Concentration of Res in liquid (γ-CD 0 mg/mL final): 28000 ng/mL
- Concentration of Res in liquid (γ-CD 12.8 mg/mL final): 20000 ng/mL
- Concentration of Res in liquid (γ-CD 25.7 mg/mL final): 12000 ng/mL
- Concentration of Res in liquid (γ-CD 32.1 mg/mL final): 10000 ng/mL
- Concentration of Res in liquid (γ-CD 38.5 mg/mL final): 8200 ng/mL
- Concentration of Res in liquid (γ-CD 51.3 mg/mL final): 5800 ng/mL
- Concentration of Res in liquid (γ-CD 64.2 mg/mL final): 3700 ng/mL

SMILES: COc1ccc(/C=C/c2cc(O)cc(O)c2)cc1O [Rha, rhapontigenin]
- Concentration of Rha in liquid (γ-CD 0 mg/mL final): 97000 ng/mL
- Concentration of Rha in liquid (γ-CD 12.8 mg/mL final): 60000 ng/mL
- Concentration of Rha in liquid (γ-CD 25.7 mg/mL final): 20000 ng/mL
- Concentration of Rha in liquid (γ-CD 32.1 mg/mL final): 17000 ng/mL
- Concentration of Rha in liquid (γ-CD 38.5 mg/mL final): 13000 ng/mL
- Concentration of Rha in liquid (γ-CD 51.3 mg/mL final): ≤10000 ng/mL
- Concentration of Rha in liquid (γ-CD 64.2 mg/mL final): ≤10000 ng/mL

— US10730815B2, “Method of producing purified stilbene compounds” (MORINAGA & CO., LTD., priority 2014, dated 2020)
